From publication PMC11995724, “Antibiotic target discovery by integrated phenotypic and activity-based profiling of electrophilic fragments” (Cell chemical biology, 2025) come the findings set out here.

The nature of this data set: in vitro. The note with it: human, hek293t cells.
For the molecule `O=C(CCl)Nc1ccc(F)c(F)c1F` [4-M05, 2-chloro-N-(2,3,4-trifluorophenyl)acetamide], the viability (as a rule, a read-out of living cells in per cent, often relative to untreated cells) at 48 h, 25 µM amounted to 0.759%. As for `CCN(CC)S(=O)(=O)c1cccc(NC(=O)CCl)c1` [4-M07, 2-chloro-N-[3-(diethylsulfamoyl)phenyl]acetamide], the figure is 1.11%; as for `COc1ccc(NC(C)=O)cc1NC(=O)C(C)Cl` (centres unmarked) [4-M08, 2-chloro-N-(5-acetamido-2-methoxyphenyl)propanamide], 84.8%. On to `COc1cc(NC(=O)CCl)c(C)cc1[N+](=O)[O-]` [4-M09, 2-chloro-N-(5-methoxy-2-methyl-4-nitrophenyl)acetamide], for which the viability at 48 h, 25 µM was 1.27%. For the molecule `CC(Cl)C(=O)Nc1cccc2ncccc12` (centres unmarked) [4-M10, 2-chloro-N-(quinolin-5-yl)propanamide], the viability at 48 h, 25 µM was determined as 97.4%. In the case of `CSc1ccccc1NC(=O)C(C)Cl` (centres unmarked) [4-M12, 2-chloro-N-[2-(methylsulfanyl)phenyl]propanamide], the viability at 48 h, 25 µM amounted to 95.2%.

For `Cc1ccc(NC(=O)CCl)cc1[N+](=O)[O-]` [4-M13, 2-chloro-N-(4-methyl-3-nitrophenyl)acetamide], the viability at 48 h, 25 µM was found to be 59.2%. As to `Cc1ccc(C)c(-c2cc(NC(=O)CCl)n(-c3ccccc3)n2)c1` [4-M14, 2-chloro-N-[3-(2,5-dimethylphenyl)-1-phenyl-1H-pyrazol-5-yl]acetamide], the viability at 48 h, 25 µM came to 0.149%. With `Cc1ccc(N(CCC#N)C(=O)CCl)cc1` [4-M15, 2-chloro-N-(2-cyanoethyl)-N-(4-methylphenyl)acetamide], the viability at 48 h, 25 µM was found to be 1.24%. As for `O=C(CCl)Nc1ccccc1F` [4-M16, 2-chloro-N-(2-fluorophenyl)acetamide], the figure is 0.723%; as for `COc1cc(NC(=O)CCl)c(Cl)cc1C(=O)O` [4-M17, 5-chloro-4-(2-chloroacetamido)-2-methoxybenzoic acid], 1.05%; as for `O=C(CCl)N1c2ccccc2SCC1c1ccccc1` (centres unmarked) [4-M18, 2-chloro-1-(3-phenyl-3,4-dihydro-2H-1,4-benzothiazin-4-yl)ethan-1-one], -0.0405%.

`COc1ccc(OC)c(C(C)NC(=O)CCl)c1` (centres unmarked) [4-M19, 2-chloro-N-[1-(2,5-dimethoxyphenyl)ethyl]acetamide]: the viability at 48 h, 25 µM was determined as 1.13%. For the molecule `COc1ccc(C2=NN(C(=O)CCl)C(c3ccc(F)cc3)C2)cc1` (centres unmarked) [4-M20, 2-chloro-1-[5-(4-fluorophenyl)-3-(4-methoxyphenyl)-4,5-dihydro-1H-pyrazol-1-yl]ethan-1-one], the viability at 48 h, 25 µM was found to be 0.00411%. As for `Cc1c(C#N)c(NC(=O)CCl)n(Cc2ccccc2)c1C` [4-M21, N-(1-benzyl-3-cyano-4,5-dimethyl-1H-pyrrol-2-yl)-2-chloroacetamide], the figure is -0.247%; as for `O=C(CCl)N1N=C(C=Cc2ccco2)CC1c1ccco1` (centres unmarked) [4-M22, 2-chloro-1-[5-(furan-2-yl)-3-[2-(furan-2-yl)ethenyl]-4,5-dihydro-1H-pyrazol-1-yl]ethan-1-one], -0.145%; as for `N#Cc1ccc(NC(=O)CCl)cc1Cl` [4-N03, 2-chloro-N-(3-chloro-4-cyanophenyl)acetamide], 0.427%. For the molecule `O=C(CCl)NCCCc1ccccc1` [4-N04, 2-chloro-N-(3-phenylpropyl)acetamide], the viability at 48 h, 25 µM was 50.6%.

Take `CC(Cl)C(=O)N(C)CC(=O)Nc1ccccc1C(F)(F)F` (centres unmarked) [4-N05, 2-chloro-N-methyl-N-({[2-(trifluoromethyl)phenyl]carbamoyl}methyl)propanamide]: the viability at 48 h, 25 µM stood at 79.8%. Turning to `COc1ccc(-c2csc(NC(=O)CCl)n2)cc1` [4-N06, 2-chloro-N-[4-(4-methoxyphenyl)-1,3-thiazol-2-yl]acetamide], the viability at 48 h, 25 µM worked out at 0.915%. As for `O=C(CCl)N1c2ccccc2Sc2ccc(Cl)cc21` [4-N07, 2-chloro-1-(2-chloro-10H-phenothiazin-10-yl)ethan-1-one], the figure is 122%; as for `O=C(CCl)Nc1ccc(C(F)(F)F)cc1[N+](=O)[O-]` [4-N08, 2-chloro-N-[2-nitro-4-(trifluoromethyl)phenyl]acetamide], 87.1%.

For the molecule `O=C(CCl)Nc1ccccc1OC(F)F` [4-N09, 2-chloro-N-[2-(difluoromethoxy)phenyl]acetamide], the viability at 48 h, 25 µM is 0.7%. For `O=C(CCl)Nc1ccc(-c2ccccc2)cc1` [4-N10, N-{[1,1'-biphenyl]-4-yl}-2-chloroacetamide] the value was 0.814%; for `O=C(CCl)NCCc1ccc2c(c1)OCCO2` [4-N11, 2-chloro-N-[2-(2,3-dihydro-1,4-benzodioxin-6-yl)ethyl]acetamide], 18.9%; for `COc1cc(NC(=O)CCl)cc(OC)c1OC` [4-N12, 2-chloro-N-(3,4,5-trimethoxyphenyl)acetamide], 1.27%.

As to `CC(Cl)C(=O)Nc1cc(Cl)c(Cl)cc1Cl` (centres unmarked) [4-N13, 2-chloro-N-(2,4,5-trichlorophenyl)propanamide], the viability at 48 h, 25 µM was 71.7%. For `CC(C)C(NC(=O)CCl)c1ccc2c(c1)OCCCO2` (centres unmarked) [4-N14, 2-chloro-N-[1-(3,4-dihydro-2H-1,5-benzodioxepin-7-yl)-2-methylpropyl]acetamide] the value was 28.5%; for `CC(Cl)C(=O)Nc1cc(C(F)(F)F)ccc1Cl` (centres unmarked) [4-N15, 2-chloro-N-[2-chloro-5-(trifluoromethyl)phenyl]propanamide], 83.3%.

Take `O=C(CCl)Nc1ccc(S(=O)(=O)C(F)F)cc1` [4-N16, 2-chloro-N-(4-difluoromethanesulfonylphenyl)acetamide]: the viability at 48 h, 25 µM is 0.598%. For `Cc1ccc(C(=O)c2ccccc2NC(=O)CCl)cc1` [4-N17, 2-chloro-N-[2-(4-methylbenzoyl)phenyl]acetamide] the value was 2.4%. For `Cc1c(C#N)c(NC(=O)CCl)n(C2CCCCC2)c1C` [4-N18, 2-chloro-N-(3-cyano-1-cyclohexyl-4,5-dimethyl-1H-pyrrol-2-yl)acetamide] the value was 0.0875%; for `COc1ccc(C2=NN(C(=O)CCl)C(c3ccco3)C2)cc1` (centres unmarked) [4-N19, 2-chloro-1-[5-(furan-2-yl)-3-(4-methoxyphenyl)-4,5-dihydro-1H-pyrazol-1-yl]ethan-1-one], 0.0172%. For `CC(Cl)C(=O)N1CC(=O)Nc2cc(C(F)(F)F)ccc21` (centres unmarked) [4-N20, 4-(2-chloropropanoyl)-7-(trifluoromethyl)-1,2,3,4-tetrahydroquinoxalin-2-one] the value was 82.1%.

`O=C(CCl)NC1CCCN(c2cc(N3CCOCC3)ncn2)C1` (centres unmarked) [4-N21, 2-chloro-N-{1-[6-(morpholin-4-yl)pyrimidin-4-yl]piperidin-3-yl}acetamide]: the viability at 48 h, 25 µM amounted to 4.92%.

In the case of `O=C(CCl)Nc1ccccc1Cc1ccccc1` [4-N22, N-(2-benzylphenyl)-2-chloroacetamide], the viability at 48 h, 25 µM was 0.906%. For `Cc1ccc(F)cc1NC(=O)CCl` [4-O03, 2-chloro-N-(5-fluoro-2-methylphenyl)acetamide] the value was 0.509%; for `COc1ccc(S(=O)(=O)N2CCOCC2)cc1NC(=O)CCl` [4-O04, 2-chloro-N-[2-methoxy-5-(morpholine-4-sulfonyl)phenyl]acetamide], 1.63%.
